# Values of other authors in patent publication US20260335282A1, “NOVEL 3-ARYLIDENE-2-INDOLINONE DERIVATIVES FOR THERAPEUTIC USE” (ISTANBUL UNIVERSITESI REKTORLUGU, priority 2022, published 2026).
# Assays:
# HT-29 and MKN-45 cells = conditions: Wang et al. 2021; cited from earlier work
# VEGFR-2 = conditions: Wang et al. 2021; cited from earlier work
# HUVEC cell line = conditions: Wang et al. 2021; cited from earlier work
# angiogenesis = conditions: transgenic zebrafish, Wang et al. 2021; cited from earlier work
smiles,measurement,setting,value
Cc1ccc(-n2cc(-c3ccc(/C=C4\C(=O)Nc5ccccc54)cc3)nn2)cc1 [III],cytotoxicity vs sunitinib,HT-29 and MKN-45 cells,better cytotoxicity on HT-29 and MKN-45 cells
same,inhibitory activity on VEGFR-2 vs sunitinib,VEGFR-2,greater inhibitory activity on VEGFR-2
same,toxicity to HUVEC vs sunitinib,HUVEC cell line,less toxic to HUVEC cell line than sunitinib
same,inhibitory effect on angiogenesis,angiogenesis,confirmed in vivo
